Measurements from patent US10709724B2, “Methods of treating mitochondrial dysfunction” (Ecole Polytechnique Federale de Lausanne (EPFL), priority 2011, dated 2020).
Values joined by “and” are separate entries in the source; they are usually repeats but may differ in a detail not shown here. Equal values may be shown once. “Also recorded” adds a separate entry of the source.

Legend:
C. elegans [1] = test: NAD measurement by HPLC in worms; format: in vivo; details: day 4 of adulthood
Protocol: Worm Respiration Assays Oxygen consumption was measured using the Seahorse XF24 equipment (Seahorse Bioscience Inc., North Billerica, Mass.) as described in Yamamoto et al. Typically, 200 animals per conditions were recovered from NGM plates with M9 medium, washed three times in 2 mLM9 to eliminate residual bacteria, and resuspended in 500 μL M9 medium. Worms were transferred in 24-well standard Seahorse plates (#100777-004) (50 worms per well) and oxygen consumption was measured 6 times. Respiration rates were normalized to the number of worms in each individual well. NAD measurement by HPLC For NAD+ quantification, approximately 1000 worms were collected in M9 buffer, washed five times to remove residual bacteria and flash-frozen in liquid nitrogen and stored at −80° C. until analysis. Extraction was started by adding 250 μl of 1.6M perchloric acid on frozen samples, followed by extensive homogenization in a Qiagen tissuelyser, and centrifugation at 20.000 g for 15 min. The supernatant was recovered and neutralized with a 3M potassium carbonate solution. […]

C. elegans [2] = test: Worm lifespan analysis; format: in vivo; details: for variation compared to control (%): vs N2 + water
Protocol: Worm Lifespan Analysis Lifespan tests were performed as described in Mouchiroud et al (L. Mouchiroud et al., Pyruvate imbalance mediates metabolic reprogramming and mimics lifespan extension by dietary restriction in Caenorhabditis elegans. Aging Cell 10, 39 (2011)). Briefly, 60-100 animals were used per conditions and scored every other day. All lifespan experiments were performed at 20° C. […] Animals were exposed to compounds during the full life from eggs until death. To ensure a permanent exposure to the compound, plates were changed twice a week. All the compounds used in this study were dissolved in a water stock solution.

HEK293T cells = test: Mitochondrial NAD+ in HEK293T cells; format: cell-based, human; details: 0.5 mM, 4 hrs
Protocol: NAD^+ NAM Determination. NAD^+ levels in cultured cells were determined using a commercial kit (Enzychrom™, BioAssays Systems, CA). For tissue samples NAD^+ and NAM levels were determined as described in (Sauve et al., 2005). In brief, to a weighed aliquot of frozen pulverized tissue we added as standards, ^18O-NAD^+ (typically 2.00 nmol) and ^18O-NAM (typically 2.00 nmol). 70 L of ice-cold 7% perchloric acid was then added and the sample was vortexed and sonicated three times, then centrifuged. Clear supernatant was removed and neutralized by additions of 3 M NaOH and 1 M phosphate buffer (pH=9), then centrifuged. Clear supernatant was injected onto HPLC C-18 column with 20 mM ammonium acetate eluent to separate NAD^+ and NAM from other cellular components, NAD^+ and NAM peaks (260 nm absorbance) were collected. Collections were lyophilized to dryness and subjected to MALDI-TOF analysis. For NAD^+ measurement, ratio of intensities for m/z=664 and 666 peaks, corresponding to ^16O- and ^18O-NAD^+ isotopomers, was multiplied by 2.00 nmol and then divided by tissue weight to determine NAD+ concentration in the sample. […] Other NAD metabolites were determined as previously described (Yang and Sauve, Synthesis of nictotinamide riboside and derivatives: effective agents for increasing nictinomide adenine dinucleotide concentrations in mammalian cells. J Med Chem 50, 6458-6461 (2006)).

C2C12 myotubes = test: Intracellular NAD+ content in C2C12 myotubes treated with PARP inhibitors; format: cell-based; set-up: intracellular NAD+ over time / H2O2-induced NAD+ depletion: dose or concentration left out as unconfirmed
Protocol: Cell Culture, Transfection, Adenoviral Infection and Mitochondrial Characterization. HEK293T, MEF and C2C12 cells were cultured in DMEM (4.5 g/l glucose, 10% FCS). PARP-1^+/+ and PARP-1^−/− MEFs were prepared as described in (Menissier-de Murcia et al., 1997). SIRT1 and MEFs were kindly provided by Fred Alt (Chea et al., 2005). SIRT3 MER were established according to standard techniques from conditional SERT3^−/− mice. (Picard, F., Gehin, M., Annicotte, J., Rocchi, S., Champy, M. F., O'Malley, B. W., Chambon, P., and Auwerx, J. (2002). SRC-1 and TIF2 control energy balance between white and brown adipose tissues. Cell 111, 931-941.) Deletion of the SIRT3 gene was induced via infection with adenovirus encoding for the Cre recombinase. HEK293T cells were transfected using JetPei reagent (Polyplus Transfections, Illkirch, France) according to the manufacturer's instructions. C2C12 cells were differentiated in DMEM (4.5 g/L glucose, 2% horse serum) after reaching confluency for 2 days, followed by 2 days of PJ34 treatment (10 μM). PARP-1 shRNA constructs were described in (Shah et al., 2005). Human PARP-1 and siRNAs were obtained from Dharmacon (Thermo Scientific). The adenovirus encoding for FLAG-HA-PGC-1α, control and SIRT1 shRNAs were a kind gift from Pere Puigserver and were used (MOI=100) in C2C12 myotubes as described (Canto et al., 2009). Mitochondrial charge determination was performed as described (Bai et al., 2001) and DNA strand breaks were quantified by TUNEL assays according to the manufacturer's instructions (Millipore).
NAD^+ NAM Determination. NAD^+ levels in cultured cells were determined using a commercial kit (Enzychrom™, BioAssays Systems, CA). For tissue samples NAD^+ and NAM levels were determined as described in (Sauve et al., 2005). In brief, to a weighed aliquot of frozen pulverized tissue we added as standards, ^18O-NAD^+ (typically 2.00 nmol) and ^18O-NAM (typically 2.00 nmol). 70 L of ice-cold 7% perchloric acid was then added and the sample was vortexed and sonicated three times, then centrifuged. Clear supernatant was removed and neutralized by additions of 3 M NaOH and 1 M phosphate buffer (pH=9), then centrifuged. Clear supernatant was injected onto HPLC C-18 column with 20 mM ammonium acetate eluent to separate NAD^+ and NAM from other cellular components, NAD^+ and NAM peaks (260 nm absorbance) were collected. Collections were lyophilized to dryness and subjected to MALDI-TOF analysis. For NAD^+ measurement, ratio of intensities for m/z=664 and 666 peaks, corresponding to ^16O- and ^18O-NAD^+ isotopomers, was multiplied by 2.00 nmol and then divided by tissue weight to determine NAD+ concentration in the sample. For NAM the ratio of intensities for m/z=123 and 125 peaks, corresponding to ^16O- and ^18O-NAM isotopomers, was multiplied by 2.00 nmol and then divided by tissue weight to determine NAM concentration in the sample. Corrections were applied for isotopic abundance. Other NAD metabolites were determined as previously described (Yang and Sauve, Synthesis of nictotinamide riboside and derivatives: effective agents for increasing nictinomide adenine dinucleotide concentrations in mammalian cells. J Med Chem 50, 6458-6461 (2006)).

Compound | NAD+ levels in C. elegans (C. elegans [1]) | mean lifespan ± SE (C. elegans [2]; N2, 200 nM) [days] | variation compared to control (%) (C. elegans [2]; N2, 200 nM) | mean lifespan ± SE (C. elegans [2]; N2, 500 nM) | mean lifespan ± SE (C. elegans [2]; N2, 1000 nM) [days] | variation compared to control (%) (C. elegans [2]; N2, 1000 nM) | lifespan in daf-16 mutant worms (C. elegans [2]; daf-16(mu86) mutant worms) | mean lifespan ± SE (C. elegans [2]; daf-16(mu86), 500 nM) [days] | variation compared to control (%) (C. elegans [2]; daf-16(mu86), 500 nM) | lifespan in sir-2.1(ok434) mutant / sir-2.1 dependence (C. elegans [2]; sir-2.1(ok434) mutant worms) | mean lifespan ± SE (C. elegans [2]; sir-2.1(ok434), 500 nM) [days] | variation compared to control (%) (C. elegans [2]; sir-2.1(ok434), 500 nM) | lifespan (C. elegans [2]; wild type N2 worms) | mitochondrial NAD+ levels in cultured cells (HEK293T cells) | intracellular NAD+ at 24 hrs, dose dependence (C2C12 myotubes; 24 hrs (FIG. 6F)) | intracellular NAD+ content (C2C12 myotubes; 24 hrs, 1 mM (FIG. 13B)) | intracellular NAD+ during H2O2 treatment (C2C12 myotubes; H2O2 500 μM, 6 hrs, PJ34 1 μM) | H2O2-induced NAD+ depletion (C2C12 myotubes; PJ34 24 hrs, H2O2 1 hr (FIG. 13B)) | intracellular NAD+ over time (C2C12 myotubes; PJ34 for the times indicated (FIG. 6D))
NC(=O)c1ccc[n+]([C@@H]2O[C@H](CO)[C@@H](O)[C@H]2O)c1 [NR, nicotinamide riboside] | increased NAD+ levels; also recorded: increases | 21.1 ± 0.88 | +17.9% | 23.5 ± 0.56 days and 24.9 ± 0.68 days and 20.6 ± 1.02 days | 20.0 ± 0.89 | +11.7% | completely abolished; also recorded: daf-16-dependent | 19.1 ± 0.51 | −7.8 | sir-2.1-dependent fashion; also recorded: sir-2-dependent manner | 23.2 ± 0.61 | +12.0% | extended lifespan; also recorded: increases | mitochondrial NAD^+ levels were enhanced |  |  |  |  | 
CN(C)CC(=O)Nc1ccc2[nH]c(=O)c3ccccc3c2c1 [PJ34] |  |  |  |  |  |  |  |  |  |  |  |  |  |  | dose dependent manner | leads to increased intracellular content | prevented the decrease in intracellular NAD^+ | global inhibition of PARP activity with PJ34 did | gradual increase in NAD^+, becoming significant 24 hrs after the initiation of the treatment
